Source: paper PMC9515472, “The AhR ligand phthiocol and vitamin K analogs as Pseudomonas aeruginosa quorum sensing inhibitors” (Frontiers in Microbiology, 2022)
Like-named read-outs stand apart in the source and are kept apart here.

Experiments:
P.aeruginosa = system: P.aeruginosa; design: method as in Shinde and Wadekar, 2018; details: due to metal ion chelating capacity; ref Shinde and Wadekar, 2018; cited from earlier work
[1] = system: P. aeruginosa PAO1 proteome; format: cell-based, Pseudomonas aeruginosa; details: Bac_Pht vs Bac
[2] = biological target: PqsR binding to the pqsA promoter (Pseudomonas aeruginosa, UniProt Q9I4X0); assay: Electrophoretic mobility shift assay (EMSA) with biotinylated pqsA promoter and cell lysates; format: biochemical; details: PAO1 WT cell lysates
PqsR binding to the pqsA promoter, sequence (Q9I4X0 whole entry): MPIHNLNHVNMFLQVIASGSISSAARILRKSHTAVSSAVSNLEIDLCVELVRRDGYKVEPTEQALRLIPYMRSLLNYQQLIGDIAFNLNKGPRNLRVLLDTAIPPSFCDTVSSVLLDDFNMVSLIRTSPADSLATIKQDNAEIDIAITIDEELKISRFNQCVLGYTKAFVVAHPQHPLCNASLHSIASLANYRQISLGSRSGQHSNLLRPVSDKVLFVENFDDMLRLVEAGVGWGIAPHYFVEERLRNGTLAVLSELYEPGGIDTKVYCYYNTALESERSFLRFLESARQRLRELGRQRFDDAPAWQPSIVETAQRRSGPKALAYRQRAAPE

CYP1B1 = assay: qRT-PCR of AhR downstream gene CYP1B1 in THP-1 cells; details: for CYP1B1 expression change in THP-1 AhR KD cells: THP-1 AhR-Knockdown (KD) cells
[3] = system: P. aeruginosa pqs QS system (pqsA-gfp); format: cell-based, Pseudomonas aeruginosa
AHRR = assay: qRT-PCR of AhR downstream gene AHRR in THP-1 cells; format: cell-based, human; details: for AHRR transcription promoted: vs DMSO, increase; for AHRR expression change in THP-1 AhR KD cells: THP-1 AhR-Knockdown (KD) cells
[4] = system: P. aeruginosa rhamnolipid productions; format: cell-based, Pseudomonas aeruginosa; details: Supplementary Figure 1
[5] = system: P. aeruginosa pqs QS system (pqsA-gfp); format: cell-based, Pseudomonas aeruginosa; remark: listed apart in the source
[6] = system: P. aeruginosa PAO1 pyocyanin production; assay: Pyocyanin quantification assay; format: cell-based, Pseudomonas aeruginosa
P. aeruginosa PAO1 = format: cell-based, Pseudomonas aeruginosa
[7] = biological target: T1, human recombinant AhR protein (Homo sapiens, UniProt P35869); assay: Microscale thermophoresis (MST) binding to AhR protein
T1 sequence (P35869 128-399): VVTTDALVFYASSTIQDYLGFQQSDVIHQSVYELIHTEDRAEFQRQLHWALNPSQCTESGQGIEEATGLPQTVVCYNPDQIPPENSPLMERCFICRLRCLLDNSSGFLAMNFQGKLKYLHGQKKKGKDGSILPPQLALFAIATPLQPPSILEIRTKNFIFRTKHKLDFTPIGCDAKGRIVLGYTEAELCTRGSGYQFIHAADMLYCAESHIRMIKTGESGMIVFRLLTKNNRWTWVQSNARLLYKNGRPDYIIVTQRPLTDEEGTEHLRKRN

[8] = system: P. aeruginosa PAO1 biofilm formation; assay: Biofilm formation assay (crystal violet staining); format: cell-based, Pseudomonas aeruginosa
[9] = 10 μM, THP-1 human monocytes, 24 h
[10] = 10 μM, THP-1 human monocytes, 24 h, vs DMSO alone, repression

| SMILES | inhibition of pqsA-gfp expression [3] | AHRR transcription promoted (AHRR; [9]) [fold] | induction of pqsA-gfp expression [5] | effect on growth of P. aeruginosa (P. aeruginosa PAO1) | Kd [7] [nM] | CYP1B1 expression change in THP-1 AhR KD cells (CYP1B1) | AHRR expression change in THP-1 AhR KD cells (AHRR) | other results |
| --- | --- | --- | --- | --- | --- | --- | --- | --- |
| CC1=C(O)C(=O)c2ccccc2C1=O [Pht, 2-hydroxy-3-methyl-1,4-naphthoquinone] | inhibit pqsA-gfp expression in a dose-dependent manner | 1.9 | not | could not affect the growth | 474 |  |  | anti-P.aeruginosa activity (P.aeruginosa): moderate; FC(group2_group1) ([1]; PA1768, Zn_protease domain-containing protein, pValue 0.168581, Sig 0): 0.5758; FC(group2_group1) ([1]; PA4677, Dipeptidase, pValue 0.361511, Sig 0): 0.5653; FC(group2_group1) ([1]; PA5194, acidPPc domain-containing protein, pValue 0.333715, Sig 0): 0.5551; FC(group2_group1) ([1]; PA5195, Heat shock protein 15, pValue 0.131054, Sig 0): 0.3354; FC(group2_group1) ([1]; PA5437, Probable transcriptional regulator, pValue 0.358265, Sig 0): 0.4217; effect on binding of PqsR (PAO1 cell lysates) to Bio-pqsA promoter [2]: attenuated the interaction between PAO1 cell lysates and Bio-pqsA; CYP1B1 transcription promoted (CYP1B1; 10 μM, THP-1 human monocytes, 24 h, vs DMSO, increase): 2.2 fold; optimal concentration for inhibition of pqsA-gfp expression ([3]; PAO1 PpqsA-gfp strain): 750 nM; rhamnolipid production [4]: did not inhibit; pyocyanin production [6]: suppressed by Pht to a level comparable to that of PAO1 ΔlasIΔrhlI strain and the ΔpqsC strain; biofilm formation [8]: suppressed by Pht to a level comparable to that of the PAO1 ΔlasIΔrhlI and the ΔpqsC strains |
| CC1=CC(=O)c2ccccc2C1=O [Vitamin K3, Menadione] | inhibit pqsA-gfp expression dose-dependently |  |  | without affecting growth | 2170 |  |  |  |
| CC(C)=CCC/C(C)=C/CC/C(C)=C/CC/C(C)=C/CC1=C(C)C(=O)c2ccccc2C1=O [Vitamin K2, Menaquinones] | inhibit pqsA-gfp expression dose-dependently |  |  | without affecting growth | 586 |  |  |  |
| CC1=C(C/C=C(\C)CCC[C@H](C)CCC[C@H](C)CCCC(C)C)C(=O)c2ccccc2C1=O [Vitamin K1, Phylloquinone] | inhibit pqsA-gfp expression dose-dependently | 1.6 |  | without affecting growth | 1990 | no change | no change |  |
| CCCCCCCc1[nH]c2ccccc2c(=O)c1O [PQS, 2-heptyl-3-hydroxy-4 (1H)-quinolone] |  |  | induced the pqsA-gfp expression in a dose-dependent manner | could not affect the growth | 3750 | no significant expression changes | no significant expression changes | CYP1B1 transcription repressed (CYP1B1; [10]): 2.3 fold; AHRR transcription repressed (AHRR; [10]): 2.5 fold |
